Measured values as given in PMC9589189, “The human odorant receptor OR10A6 is tuned to the pheromone of the commensal fruit fly Drosophila melanogaster” (iScience, 2022).
Numbering of substitutions follows the chain as printed. Where two headings read alike, the source gives them in different places.

Assays:
Test in all cases: GloSensor cAMP luminescence, HEK-293
Type in all cases: cell-based
OR2W1 [1] = molecular target: T1, OR2W1 (Homo sapiens, UniProt Q9Y3N9)
T1 construct: full coding region from human genomic DNA in pFN210A, N-terminal IL-6-HaloTag; HEK-293 with RTP1S, G-alpha-olf, G-gamma-13, GloSensor-22F
T1 sequence (Q9Y3N9 1-320): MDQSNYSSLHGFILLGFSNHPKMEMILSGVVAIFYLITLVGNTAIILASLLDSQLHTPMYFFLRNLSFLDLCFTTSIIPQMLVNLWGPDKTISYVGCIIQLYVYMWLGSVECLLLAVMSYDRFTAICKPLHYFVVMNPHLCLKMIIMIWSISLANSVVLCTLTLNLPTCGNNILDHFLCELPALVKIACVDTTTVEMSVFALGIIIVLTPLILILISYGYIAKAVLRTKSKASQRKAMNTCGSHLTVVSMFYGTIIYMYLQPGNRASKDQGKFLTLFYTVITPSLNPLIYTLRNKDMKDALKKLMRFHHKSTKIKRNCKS
Excerpt: (§1) GloSensor cAMP luminescence, HEK-293 on OR2W1

OR2W1 [2] = molecular target: T2, OR2W1 (Homo sapiens, UniProt Q9Y3N9, M81V)
T2 construct: full coding region from human genomic DNA in pFN210A, N-terminal IL-6-HaloTag; HEK-293 with RTP1S, G-alpha-olf, G-gamma-13, GloSensor-22F
T2 sequence (Q9Y3N9 1-320 M81V): T1 sequence (Q9Y3N9 1-320) with M81V
Excerpt: as §1

OR2W1 [3] = molecular target: T3, OR2W1 (Homo sapiens, UniProt Q9Y3N9, D296N)
T3 construct: full coding region from human genomic DNA in pFN210A, N-terminal IL-6-HaloTag; HEK-293 with RTP1S, G-alpha-olf, G-gamma-13, GloSensor-22F
T3 sequence (Q9Y3N9 1-320 D296N): T1 sequence (Q9Y3N9 1-320) with D296N
Excerpt: as §1

OR10A6 [4] = molecular target: T4, OR10A6 (Homo sapiens, UniProt Q8NH74)
T4 construct: full coding region from human genomic DNA in pFN210A, N-terminal IL-6-HaloTag; HEK-293 with RTP1S, G-alpha-olf, G-gamma-13, GloSensor-22F
T4 sequence (Q8NH74 1-314): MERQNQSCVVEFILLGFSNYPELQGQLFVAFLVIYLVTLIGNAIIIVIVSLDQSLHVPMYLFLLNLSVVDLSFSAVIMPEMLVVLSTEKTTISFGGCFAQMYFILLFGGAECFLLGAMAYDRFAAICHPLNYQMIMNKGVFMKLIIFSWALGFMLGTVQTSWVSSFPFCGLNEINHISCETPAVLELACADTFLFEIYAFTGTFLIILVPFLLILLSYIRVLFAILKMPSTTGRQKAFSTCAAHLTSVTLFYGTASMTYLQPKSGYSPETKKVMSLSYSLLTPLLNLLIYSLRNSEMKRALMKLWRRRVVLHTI
Excerpt: (§2) GloSensor cAMP luminescence, HEK-293 on OR10A6

OR10A6 [5] = molecular target: T5, OR10A6 (Homo sapiens, UniProt Q8NH74, A117V/L287P/V140G)
T5 construct: full coding region from human genomic DNA in pFN210A, N-terminal IL-6-HaloTag; HEK-293 with RTP1S, G-alpha-olf, G-gamma-13, GloSensor-22F
T5 sequence (Q8NH74 1-314 A117V/V140G/L287P): T4 sequence (Q8NH74 1-314) with A117V, V140G, L287P
Excerpt: as §2

OR10A6 [6] = molecular target: T6, OR10A6 (Homo sapiens, UniProt Q8NH74, L287P)
T6 construct: full coding region from human genomic DNA in pFN210A, N-terminal IL-6-HaloTag; HEK-293 with RTP1S, G-alpha-olf, G-gamma-13, GloSensor-22F
T6 sequence (Q8NH74 1-314 L287P): T4 sequence (Q8NH74 1-314) with L287P
Excerpt: as §2

[7] = read-out: Z4-11Al EC50 [μmol/L] ^a

Compound	EC50 (OR2W1 [1]; read-out: Z4-9Al) [µmol/L]	EC50 (OR2W1 [2]; read-out: Z4-9Al) [µM]	EC50 (OR2W1 [3]; read-out: Z4-9Al) [µmol/L]	EC50 (OR10A6 [4]) [µM]	EC50 (OR10A6 [5]) [µM]	EC50 (OR10A6 [6]; read-out: Z4-9Al) [µmol/L]	EC50 (OR2W1 [1]; [7]) [µmol/L]	EC50 (OR2W1 [2]; read-out: EC50) [µM]	EC50 (OR2W1 [3]; [7]) [µmol/L]	EC50 (OR10A6 [6]; [7]) [µmol/L]	EC50 (OR2W1 [1]; read-out: Z6-11Al) [µmol/L]	EC50 (OR2W1 [3]; read-out: Z6-11Al) [µmol/L]	EC50 (OR10A6 [6]; read-out: Z6-11Al) [µmol/L]
CCCC/C=C\CCC=O [Z4-9Al, (Z)-4-nonenal]	119 ± 23.1	142 ± 92.4	91.8 ± 46.2	> 1000	> 1000	41.1 ± 14.2	–	–	–	–	–	–	–
CCCCCC/C=C\CCC=O [Z4-11Al, (Z)-4-undecenal]	–	–	–	> 1000	> 1000	–	65.1 ± 35.8	> 1000	40.4 ± 12	28.2 ± 12.6	–	–	–
CCCC/C=C\CCCCC=O [Z6-11Al, (Z)-6-undecenal]	–	–	–	> 1000	> 1000	–	–	> 1000	–	–	104 ± 27	138 ± 55	34.8 ± 9.21
